Several values for one entry are separate records, joined by “and”; a condition that tells them apart may be missing. Identical values can stand only once. Like-named read-outs stand apart in the source and are kept apart here.
Columns and labels:
human plasma = test: DSC thermograms of plasma with ligand; assay type: binding; conditions: plasma
[1] = target: T1, human serum albumin (HSA) (Homo sapiens, UniProt P02768); test: Two-ligand (NAP + BCG) binding to standard HSA by DSC
T1 construct: purchased Sigma Aldrich (St. Louis, Mo.)

HSA [2] = target: T2, HSA (Homo sapiens, UniProt P02768); design: purchased Sigma Aldrich (St. Louis, Mo.); conditions: cited from earlier work; for Kd: binding to HSA, read-out: Average Literature KD
[3] = target: T1, human serum albumin (HSA); test: DSC thermograms of HSA with ligand (single-ligand titration); assay type: binding; conditions: for Binding Site stoichiometry / Implied number of sites: from dose response curves with HSA; for Tm / ΔG37^O / ΔHcal / ΔScal: thermal denaturation of HSA
Description: Chemicals and reagents: Plasma and highly pure plasma proteins are sourced from commercial suppliers. Standard reagents are sourced from commercial suppliers. Samples are prepared in standard phosphate-buffered saline (PBS) buffer. In some examples, human plasma and serum albumin were purchased from Sigma Aldrich (St. Louis, Mo.) and received as lyophilized powder. Plasma was product number: P9523, lot number: SLBT0202. […] In vivo, the standard state of HSA is most certainly bound to some extent by fatty acids. Plasma and HSA stock solutions were prepared by re-suspending the appropriate amount of powder in buffer. Samples were prepared by diluting stock solutions to a final concentration of 1.5-2.0 mg/mL.
Protein concentration was approximately 2 mg/ml.
In a DSC melting experiment, the supplemental power supplied to the sample cell (in μW) necessary to keep the sample temperature equal to the reference temperature is continually monitored. […] Supplemental power is directly related to the molar heat capacity at constant pressure, ΔCp. Curves of ΔCp versus T provide an evaluation of the thermodynamic enthalpy. To enable direct comparisons in some cases, power (μW) versus T plots (instead of ΔCp versus T curves) were used for the following reason.
Analysis of DSC data was performed using the Nanoanalyze software package, version 3.7.5, provided by T.A. Instruments. […]
From the thermograms, semi-quantitative evaluations of the thermodynamic parameters ΔHcal, ΔScal and ΔGcal(37° C.) were obtained at each ligand concentration.
These curves were constructed from titrations of DM1 with HSA. The Tm and ΔGcal(37° C.) were evaluated. The values were normalized against standard HSA and plotted versus ligand concentration to provide the dose curves in FIG. 20A (Tm) and FIG. 20B (ΔGcal(37° C.)).
Natural HSA samples were prepared at pH 6.0 and pH 8.0 and examined by DSC. […] From DSC melting curves thermodynamic parameters for HSA/ligand mixtures were evaluated.

HSA [4] = target: T2, HSA; test: Drug screening: HSA binding constants from DSC thermograms
Description: (§1) Ligand solubilization: Stock solutions of aqueous insoluble ligands in organic solvents were pipetted into microcentrifuge tubes to yield a desired amount of drug for a 1 mL solution. The microcentrifuge tubes were placed into a vacuum concentrator (Savant SpeedVac Model SC100), and the organic solvents were evaporated, resulting in solid drug in the tube. To each tube, HSA is added at a predetermined concentration with standard buffer to provide a 1 mL working solution.
(§2) In total binding of 28 drug compounds to HSA was examined by obtaining thermograms.

biotinylated HSA (HSAB) = biotinylated HSA (HSAB) (Homo sapiens, UniProt P02768); test: DSC thermograms of biotinylated HSA (HSAB) with ligands; assay type: binding
[5] = after several days; cited from earlier work
HSA [6] = target: T2, HSA
Description: as §1, §2

[7] = ligand 22.5 μM (so in the source)

T1 sequence (P02768 25-609): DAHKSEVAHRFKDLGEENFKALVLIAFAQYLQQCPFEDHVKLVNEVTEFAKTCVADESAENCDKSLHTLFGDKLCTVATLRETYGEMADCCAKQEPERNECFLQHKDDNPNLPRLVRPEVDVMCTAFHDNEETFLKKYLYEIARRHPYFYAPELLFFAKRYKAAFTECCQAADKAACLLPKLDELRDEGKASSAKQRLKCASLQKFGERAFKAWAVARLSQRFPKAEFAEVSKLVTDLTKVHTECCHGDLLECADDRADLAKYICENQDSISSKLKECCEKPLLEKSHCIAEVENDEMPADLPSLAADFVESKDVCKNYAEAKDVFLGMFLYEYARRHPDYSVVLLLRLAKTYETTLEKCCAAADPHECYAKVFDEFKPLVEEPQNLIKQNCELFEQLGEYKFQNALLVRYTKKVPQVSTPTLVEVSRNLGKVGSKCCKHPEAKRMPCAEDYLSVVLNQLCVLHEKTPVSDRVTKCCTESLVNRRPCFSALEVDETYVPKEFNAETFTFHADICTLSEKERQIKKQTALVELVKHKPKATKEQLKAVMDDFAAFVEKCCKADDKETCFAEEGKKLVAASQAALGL
Sequence of biotinylated HSA (HSAB) (P02768 25-609): as above
T2 sequence (P02768 25-609): as above

Cc1c(C2(c3cc(Br)c(O)c(Br)c3C)OS(=O)(=O)c3ccccc32)cc(Br)c(O)c1Br [BCG, bromocresol green]
shift in Tm (human plasma; 100 μM ligand): about 7 °C | enthalpy (ΔHcal) of plasma with ligand (human plasma; 100 μM ligand (FIG. 10A)): 590 kJ/mol | major Tm peak of plasma shifted to (human plasma; 100 μM ligand (FIG. 10A)): 72 °C | Binding Chemical Potentials (ΔG^O37) ([1]; HSA25BCG (HSA + 25 μM BCG), [NAP] 0 μM): 58.58 kJ/mol | Binding Chemical Potentials (ΔG^O37) ([1]; HSA25NAP (pre-bound 25 μM NAP), [BCG] 50 μM): 76.69 kJ/mol | Binding Chemical Potentials (ΔG^O37) ([1]; HSA25NAP (pre-bound 25 μM NAP), [BCG] 75 μM): 81.55 kJ/mol | Binding Chemical Potentials (ΔG^O37) ([1]; HSA25NAP (pre-bound 25 μM NAP), [BCG] 150 μM): 82.05 kJ/mol | Binding Chemical Potentials (ΔG^O37) ([1]; HSA50BCG (HSA + 50 μM BCG), [NAP] 0 μM): 63.3 kJ/mol | Binding Chemical Potentials (ΔG^O37) ([1]; HSA50NAP (pre-bound 50 μM NAP), [BCG] 50 μM): 76.44 kJ/mol | Binding Chemical Potentials (ΔG^O37) ([1]; HSA50NAP (pre-bound 50 μM NAP), [BCG] 75 μM): 77.28 kJ/mol | Binding Chemical Potentials (ΔG^O37) ([1]; HSA50NAP (pre-bound 50 μM NAP), [BCG] 150 μM): 80.71 kJ/mol | Binding Chemical Potentials (ΔG^O37) ([1]; HSA75BCG (HSA + 75 μM BCG), [NAP] 0 μM): 64.14 kJ/mol | Binding Chemical Potentials (ΔG^O37) ([1]; HSA75NAP (pre-bound 75 μM NAP), [BCG] 50 μM): 81.63 kJ/mol | Binding Chemical Potentials (ΔG^O37) ([1]; HSA75NAP (pre-bound 75 μM NAP), [BCG] 75 μM): 85.44 kJ/mol | Binding Chemical Potentials (ΔG^O37) ([1]; HSA75NAP (pre-bound 75 μM NAP), [BCG] 150 μM): 88.2 kJ/mol | Binding Chemical Potentials (ΔG^O37) ([1]; WT HSA with 50 μM BCG, [NAP] 0 μM): 63.55 kJ/mol | Binding Chemical Potentials (ΔG^O37) ([1]; WT HSA with 50 μM NAP, [BCG] 50 μM): 76.9 kJ/mol | Binding Chemical Potentials (ΔG^O37) ([1]; WT HSA with 50 μM NAP, [BCG] 75 μM): 78.41 kJ/mol | Binding Chemical Potentials (ΔG^O37) ([1]; WT HSA with 50 μM NAP, [BCG] 150 μM): 83.09 kJ/mol | binding stoichiometry n on HSA (HSA [2]; NAP Sudlow site II, BCG Sudlow site I): 3 | Kd (HSA [2]): 1.43 µM | increase of ΔGcal(37° C.) versus titration curve at pH 7.4 ([3]; HSA + ligand at pH 6.0, as much as): ~5 kcal/mol | lowering of ΔGcal(37° C.) versus titration curve at pH 7.4 ([3]; HSA + ligand at pH 8.0): ~2 kcal/mol | ΔHcal of HSA/ligand ([3]; HSA, 100 μM ligand (text, FIG. 10B)): 692.9 kJ/mol and 695 kJ/mol | Binding Site stoichiometry [3]: 3 | Implied number of sites [3]: 6 | Tm ([3]; ligand 1 μM): 62.9 °C | ΔG37^O ([3]; ligand 1 μM): 54.85 kJ/mol | ΔHcal ([3]; ligand 1 μM): 711.78 kJ/mol | ΔScal ([3]; ligand 1 μM): 506.23 cal/molK | Tm ([3]; ligand 10 μM): 63.3 °C | ΔG37^O ([3]; ligand 10 μM): 57.86 kJ/mol | ΔHcal ([3]; ligand 10 μM): 740.53 kJ/mol | ΔScal ([3]; ligand 10 μM): 526.08 cal/molK | Tm [3, 7]: 70.8 °C | ΔG37^O [3, 7]: 68.74 kJ/mol | ΔHcal [3, 7]: 699.73 kJ/mol | ΔScal [3, 7]: 486.25 cal/molK | Tm ([3]; ligand 25 μM): 63.6 °C | ΔG37^O ([3]; ligand 25 μM): 60.21 kJ/mol | ΔHcal ([3]; ligand 25 μM): 761.7 kJ/mol | ΔScal ([3]; ligand 25 μM): 540.59 cal/molK | Tm ([3]; ligand 50 μM): 64.0 °C | ΔG37^O ([3]; ligand 50 μM): 63.55 kJ/mol | ΔHcal ([3]; ligand 50 μM): 793.91 kJ/mol | ΔScal ([3]; ligand 50 μM): 562.81 cal/molK | Tm ([3]; ligand 75 μM): 64.6 °C | ΔG37^O ([3]; ligand 75 μM): 64.14 kJ/mol | ΔHcal ([3]; ligand 75 μM): 785.59 kJ/mol | ΔScal ([3]; ligand 75 μM): 555.95 cal/molK | Tm ([3]; ligand 125 μM): 67.2 °C | ΔG37^O ([3]; ligand 125 μM): 67.7 kJ/mol | ΔHcal ([3]; ligand 125 μM): 762.87 kJ/mol | ΔScal ([3]; ligand 125 μM): 535.71 cal/molK | Tm ([3]; ligand 150 μM): 69.0 °C | ΔG37^O ([3]; ligand 150 μM): 70.04 kJ/mol | ΔHcal ([3]; ligand 150 μM): 748.27 kJ/mol | ΔScal ([3]; ligand 150 μM): 522.66 cal/molK | Tm ([3]; ligand 175 μM): 69.1 °C | ΔG37^O ([3]; ligand 175 μM): 66.61 kJ/mol | ΔHcal ([3]; ligand 175 μM): 710.32 kJ/mol | ΔScal ([3]; ligand 175 μM): 496.04 cal/molK | Tm ([3]; ligand 200 μM): 70.3 °C | ΔG37^O ([3]; ligand 200 μM): 67.95 kJ/mol | ΔHcal ([3]; ligand 200 μM): 700.49 kJ/mol | ΔScal ([3]; ligand 200 μM): 487.44 cal/molK | Kd (HSA [4]; read-out: Average Measured KD; binding to HSA; single value or value marked 1)): 3.31 µM | Kd (HSA [4]; read-out: Measured KD From TM; binding to HSA; single value or value marked 1)): 4.97 µM | Kd (HSA [4]; read-out: Measured KD from ΔG^037; binding to HSA; single value or value marked 1)): 1.64 µM | Binding Chemical Potentials (ΔG^O37) (biotinylated HSA (HSAB); HSAB 1:1 with 50 μM BCG, [NAP] 0 μM): 77.36 kJ/mol | Binding Chemical Potentials (ΔG^O37) (biotinylated HSA (HSAB); HSAB 1:1 with 50 μM NAP, [BCG] 50 μM): 91.04 kJ/mol | Binding Chemical Potentials (ΔG^O37) (biotinylated HSA (HSAB); HSAB 1:1 with 50 μM NAP, [BCG] 75 μM): 94.39 kJ/mol | Binding Chemical Potentials (ΔG^O37) (biotinylated HSA (HSAB); HSAB 1:1 with 50 μM NAP, [BCG] 150 μM): 96.06 kJ/mol | Binding Chemical Potentials (ΔG^O37) (biotinylated HSA (HSAB); HSAB 1:5 with 50 μM BCG, [NAP] 0 μM): 88.99 kJ/mol | Binding Chemical Potentials (ΔG^O37) (biotinylated HSA (HSAB); HSAB 1:5 with 50 μM NAP, [BCG] 50 μM): 100.9 kJ/mol | Binding Chemical Potentials (ΔG^O37) (biotinylated HSA (HSAB); HSAB 1:5 with 50 μM NAP, [BCG] 75 μM): 107.1 kJ/mol | Binding Chemical Potentials (ΔG^O37) (biotinylated HSA (HSAB); HSAB 1:5 with 50 μM NAP, [BCG] 150 μM): 104.9 kJ/mol | Binding Chemical Potentials (ΔG^O37) (biotinylated HSA (HSAB); HSAB 1:10 with 50 μM BCG, [NAP] 0 μM): 93.6 kJ/mol | Binding Chemical Potentials (ΔG^O37) (biotinylated HSA (HSAB); HSAB 1:10 with 50 μM NAP, [BCG] 50 μM): 104.8 kJ/mol | Binding Chemical Potentials (ΔG^O37) (biotinylated HSA (HSAB); HSAB 1:10 with 50 μM NAP, [BCG] 75 μM): 105.9 kJ/mol | Binding Chemical Potentials (ΔG^O37) (biotinylated HSA (HSAB); HSAB 1:10 with 50 μM NAP, [BCG] 150 μM): 104.6 kJ/mol

CCCCNc1ccc(C(=O)OCCN(C)C)cc1 [Tet, Tetracaine]
effect on fibrinogen melting transition peak (52° C.) of the plasma thermogram (human plasma; 2 mg/mL ligand): slight change | Tm where the HSA in plasma transition occurs (human plasma; 2 mg/mL ligand, control 62-64° C.): 63-65 °C | Kd (HSA [2]): 59.8 µM | Binding Site stoichiometry [3]: 1 | Implied number of sites [3]: 1 | Kd (HSA [4]; Average Measured KD, binding to HSA; single value or value marked 1)): 26.1 µM | Kd (HSA [4]; Measured KD From TM, binding to HSA; single value or value marked 1)): 23.6 µM | Kd (HSA [4]; Measured KD from ΔG^037, binding to HSA; single value or value marked 1)): 28.6 µM | in vivo activity [5]: retained significant activity after several days

CNC[C@H](O)[C@@H](O)[C@H](O)[C@H](O)CO.CNC[C@H](O)[C@@H](O)[C@H](O)[C@H](O)CO.O=C([O-])CN(CCN(CC(=O)[O-])CC(=O)O)CCN(CC(=O)[O-])CC(=O)O.[Gd+3] [Magnevist (MAG)]
Measured HSA binding (cell spanning the measured KD columns; same in text) (HSA [6]): No Binding Detected

O=C([O-])CN1CCN(CC(=O)[O-])CCN([C@H](CO)[C@H](O)CO)CCN(CC(=O)[O-])CC1.[Gd+3] [Gadavist (GAD)]
Measured HSA binding (cell spanning the measured KD columns; same in text) (HSA [6]): No Binding Detected

— US20220091128A1, “SYSTEM AND METHOD FOR LIGAND THERMAL ANALYSIS” (Portland State University, priority 2019, published 2022)
